What was measured:
[1] = tested on: mice subjected to controlled cortical impact (CCI) TBI; test: CCI TBI in mice: histology and GFAP/IBA1 immunohistochemistry; format: in vivo, mouse
Protocol: (§1) For behavioral analyses, mice were assessed for spatial memory, gait function, motor coordination/balance function and home cage activity. The animals were subsequently evaluated for cellular changes using histology and immunohistochemistry after euthanasia.
(§2) In order to develop a controlled cortical impact (CCI) model of TBI, mice were anesthetized with 2.5% 2,2,2-tribromoethanol (Avertin, 400 mg/kg, I.P.) (Sigma, St. Louis, MO, USA) and placed in a stereotaxic frame (Kopf Instruments, Tujunga, CA, USA). A 4 mm craniotomy was performed under sterile procedures; the craniotomy point was selected midway between the lambda and bregma sutures, and laterally midway between the central suture and the temporalis muscle. The skull fragment was then carefully removed without disruption of the underlying dura on the right side of the head. Before injury, the tip of the impactor was angled and kept perpendicular to the exposed cortical surface. The mouse CCI instrument consisted of an electromagnetic impactor, Impact One (Leica Biosystems Inc., Buffalo Grove, IL, USA) that allows independent manipulation of injury severity by adjusting the contact duration and velocity of a metal impactor and the depth of cortical deformation. In these experiments, the contact velocity was set at 5.0 m/s, the dwell time was set at 0.2 s, and the deformation depth was set at 1.5 mm to produce a moderate TBI. The injury site was cleaned and dried by use of sterile cotton tipped applicators prior to suturing the wound. During surgery and recovery, the body temperature of all animals was maintained at 36–37 °C by using a heating pad.
Two weeks following injury, mice were deeply anesthetized using isoflurane and underwent transcardial perfusion with 30 ml of phosphate-buffered saline (PBS) followed by 120 ml of 4% paraformaldehyde (PFA) in PBS. The brains were collected and placed into a 4% PFA solution for post-fixation overnight, and then transferred to 25% followed by 30% sucrose solution in PBS for dehydration. Sections of a region extending from the striatum to the hippocampus were cut coronally into 25 μm thickness using a cryostat (Leica Biosystems Inc., Buffalo Grove, IL, USA) and stored in a cryoprotectant solution. These sections were subjected to Giemsa (nuclear/chromosomal) staining and immunohistochemical analysis.
Brain sections obtained 2 weeks post-TBI, with a thickness of 25 µm, were placed onto slides. These sections were stained using a 10% Giemsa KH2PO4 buffered solution (pH 4.5) for 30 min at 40 °C. Following a rinse, the slides underwent de-staining, differentiation, dehydration in absolute ethanol, cleared in xylene, and then were cover-slipped. Subsequently, the slides were scanned using an All-in-One Fluorescence Microscope BZ-X710 (Keyence Corporation of America, Itasca, IL, USA). Brain image areas were quantified using ImageJ 1.52q software (National Institutes of Health, Bethesda, MD, USA). The contusion volume size and lateral ventricle size were determined as described previously, using the calculation formulas as follows:
Contusion volume size: Σ (area of contralateral hemisphere–area of ipsilateral hemisphere)/Σ area of contralateral hemisphere × 100.
Lateral ventricle size: Σ area of ipsilateral lateral ventricle/Σ area of contralateral lateral ventricle.
Nine brain sections from each mouse were quantified, spanning regions from bregma 0.86 mm to − 1.46 mm.
Immunohistochemistry for GFAP and IBA1 was performed as described previously. […]

[2] = tested on: mice subjected to controlled cortical impact (CCI) TBI; test: CCI TBI in mice: behavioral assessment; format: in vivo, mouse; conditions: for CCI-induced asymmetry, elevated body swing test: 1 week post injury; for home cage activity during the initial 11 h following CCI: dark phase; for CCI-induced reduction in brake time (gait): left hind limb, 1 week after injury
Protocol: as §1, §2
Behavioral tests were conducted 1 week and 2 weeks post the CCI/sham procedure, to evaluate motor function and coordination differences between groups, and to compare with data performed 1 week prior to either procedure. All behavioral tests were conducted during the animals’ day light cycle; home cages were moved to behavioral rooms at least 1 h before testing.
Home cage activity monitoring was automatically and non-intrusively monitored using the digital individually ventilated cage system (DVC™; Tecniplast). Mice were individually housed, and their activity was tracked for 3 days before CCI/sham and 7 days after CCI/sham procedures.
Beam Walking Test (BWT) was used to evaluate CCI-induced impairments in motor coordination. Mice have an intrinsic preference for a darkened enclosed environment, as compared to an open bright field. Each mouse was placed in a darkened one-side-open cube box for 2 min for habituation and then was brought to the other (light) end of the beam, to start the trial. Two beams were used in this study with the following dimensions: 0.6 cm or 1.2 cm (width) × 91 cm (length). The time taken for each mouse to traverse the beam to reach the dark cube box and the ‘immobility time’ spent between the moment a mouse was initially placed on the beam and it started walking were recorded. Two trials were recorded for each animal with the 1.2 cm-width beam, and an additional two trials with the 0.6 cm-width were subsequently recorded. The mean times to traverse the beam and the immobility times were calculated, and a plot was generated to evaluate treatment effects; these times were then used for statistical analysis.
Gait analysis was employed to assess gait parameters following a specific protocol provided by the DigiGait manufacturer (Mouse Specifics, Inc., Framingham, MA, USA). The study tracked gait function at three time points: baseline, 1-week prior to CCI (PRE), and 1- and 2-weeks post-CCI. At the beginning of the trial, mice were brought to the test chamber for habituation to the new environment for 2 min, and then were given a 1-min run at 5 cm/sec before a 1-min break. […] Videos were assessed using DigiGait software to evaluate parameters that included stride duration, length, paw angle, and stance for all four limbs, following Mouse Specifics, Inc.'s procedures. […]

[3] = human; cited from earlier work
[4] = 2 weeks after CCI, 13.23 and 26.47 mg/kg I.P. at 30 min and 24 h
[5] = both low and high doses, p < 0.0001
[6] = high dose, initial 5 min on Day 2, 1 week after CCI, vs CCI + Vehicle
[7] = high dose, vs CCI + vehicle, p < 0.05
[8] = low dose, p < 0.05 vs CCI + Vehicle

In the case of `Nc1cccc2c1C(=S)N(C1CCC(=O)NC1=O)C2=O` (centres unmarked) [3-MP, 3-monothiopomalidomide], the “contusion volume (loss of cortical tissue)” value [1, 4] was “unchanged”, the lateral ventricle enlargement [1, 4] was “unchanged” and the “TBI-induced morphological alterations in astrocytes (surface area, cell volume, branch area, branch length, number of branches)” value ([1]; both low and high doses, ipsilateral (p < 0.0001) and contralateral cortex) was “significantly ameliorated”. For the same compound, the “CCI-induced microglial morphological alterations (ramification index, branches, branch length, spanned area, junctions, endpoints)” value [1, 5] was “partially but significantly returned”, the “astrocyte complexity (total Sholl intersections)” value [1, 5] was “significantly mitigated” and the “CCI-induced elevation of swing duration CV (gait)” value ([2]; both low and high doses, p < 0.05 vs CCI + Vehicle) was “significantly reduced”. For the same compound, the “CCI-induced asymmetry, elevated body swing test” value ([2]; high dose) was “trend towards normalization”, the “home cage activity during the initial 11 h following CCI” value ([2]; high dose, vs CCI + vehicle) was “did not reach statistical significance” and the “discrimination index (DI) of distance traveled” value ([2]; high dose, initial 5 min, vs CCI + Vehicle) was “substantially higher”. For the same compound, the “ambulatory time in the center zone, novelty-dependent exploration test” value [2, 6] was “significantly lower”, the “distance traveled, novelty-dependent exploration test” value [2, 6] was “significantly lower” and the “CCI-induced reduction in brake time (gait)” value ([2]; high dose, p < 0.05) was “significantly alleviated”. The “discrimination index (DI) of duration in the center” value [2, 7] was “significantly higher”, the “home cage activity on the day after CCI” value [2, 7] was “significantly higher” and the “lower home cage activity 24 h later (night + 1)” value ([2]; low dose and high dose, vs CCI + vehicle, p < 0.05) was “significantly mitigated”. For the same compound, the “CCI-induced asymmetry, elevated body swing test” value [2, 8] was “notably reduced”, the “home cage activity during the initial 11 h following CCI” value ([2]; low dose, vs CCI + vehicle, p < 0.05) was “notably higher” and the “CCI-induced reduction in brake time (gait)” value ([2]; low dose) was “trend towards improvement”. The “paw angle impairment (gait)” value [2, 8] was “mitigated” and the “stability in ex vivo plasma and liver homogenate samples” value [3] was “relatively stable”.

Source: paper PMC12172326 (Journal of Biomedical Science, 2025)
